The record followed here is patent US7056728B2, “Compositions and methods for use thereof in modifying the genomes of microorganisms” (priority 2000, dated 2006).

The subject of test [1] is S. pneumoniae A66.1 Xen 10. Further details: species or system Streptococcus pneumoniae. The following applies: in vivo. On the procedure:
Thus, the strains HUSTMBIG, A66.1, EF3030 and 140301 were made bioluminescent and tested in both mouse lung and nasopharyngeal models. Briefly, exponential cultures of S. pneumoniae grown at 37° C. in BHI were pelleted and then resuspended in fresh BHI broth. Bacterial concentrations were estimated spectrophotometrically by absorbance at 600 nm and adjusted to approximately […] by dilution BHI. Cell numbers were verified by plating dilutions of inoculum onto BHI agar.
Pneumococci were introduced into the lungs of the mice by either direct intratracheal inoculation, or by intranasal administration. The animals were anesthetized with ketamine (100 mg/ml) and xylazine (20 mg/ml), mixed at a 4:1 ratio v/v just before use. The anesthesia mixture was injected intramuscularly into the right hamstring muscle at a dose of 100 mg ketamine/kg of body weight. After anesthesia was established, the mice were inoculated with approximately 10^6 CFU in a total volume of 20 μl, using a 25 ga. Ball-tipped gavage needle. Mice were held in vertical suspension for 10 minutes after inoculation to facilitate deep penetration of the inoculum. Alternatively, mice were infected intranasally with approximately 10^6 CFU by placing 20 μl of bacterial suspension on the nares and allowing the mice to inhale the inoculum. In the antibiotic studies, mice were treated with amoxicillin at 1 mg/kg or 5 mg/kg, given subcutaneously at t=0, 18, 24, and 42 hours post-infection.
Mice were imaged for a maximum of 5 min at a number of time points post-infection using an IVIS™ CCD camera (Xenogen Corporation, Alameda, Calif.). Total photon emission from selected and defined areas within the images of each mouse was quantified using the LivingImage™ software package (Xenogen Corporation, Alameda, Calif.). The photon signal from the thorax was quantified from the ventral image of each mouse.
Twelve mice were inoculated with approximately 10^6 CFU of S. pneumoniae A66.1 Xen 10. The mice were divided into three groups of four animals and two of these groups were treated with an amoxicillin regime at 1 or 5 mg/kg, the third group of animals remaining untreated as controls.
After the final imaging time point, mice were sacrificed and the infected lung tissue was surgically removed and weighed. Both lungs were homogenized together in 500 μl BHI in a loose Dounce homogenizer. The suspension was serially diluted in BHI and plated in duplicate onto BHI agar. Bacterial burden was estimated from the number of CFU/g of lung tissue. The bacterial load present in the nasal passage of the mice was obtained by washing approximately 0.25 ml of saline through the trachea and collecting the first 0.1 ml of nasal wash as it exited the nares, as described (Lipsitch et al. (2000) Vaccine 18:2895–2901; Wu et al. (1997) Microb. Pathog. 23:127–137).

The next test relates to MRSA strain I6. As to the kind of experiment: antibiotic resistance of MRSA strain. The format is cell-based, S. aureus.
Test [2] concerns S. pneumoniae pAUL-A Tn4001 luxABCDE km^R. As to the kind of experiment: growth and colony formation of S. pneumoniae transformants in the presence of kanamycin. The format is cell-based, Streptococcus pneumoniae. The following applies: 10^3 CFUs plated on chocolate agar, increasing kanamycin 400 to 1000 μg/ml; approximately 1000 CFUs without kanamycin.

Turning to `CC1(C)S[C@@H]2[C@H](NC(=O)[C@H](N)c3ccc(O)cc3)C(=O)N2[C@H]1C(=O)O` [amoxicillin], in test [1], the “appearance of treated mice” value is recorded as “appeared relatively healthy”, the “highest number of pneumococci isolated from a treated animal (lung tissue)” value is on record as 300 CFU/g tissue and the “treated animals showing no bacteria present in lung tissue” value is on record as “four of the eight”. For the same molecule, the “animals with a bioluminescent signal” value in test [1] (sc, 1 mg/kg) is recorded as “Three of the four”. The “animals with a significant bioluminescent signal” value in test [1] (sc, 5 mg/kg) is recorded as “None of the four”.

`O=C(N[C@H](CO)[C@H](O)c1ccc([N+](=O)[O-])cc1)C(Cl)Cl` [chloremphenicol]: in the test with MRSA strain I6, the “resistance of strain to antibiotics tested” value is “resistant to all the antibiotics tested except for chloremphenicol”.

Take `NC[C@H]1O[C@H](O[C@H]2[C@H](O)[C@@H](O[C@H]3O[C@H](CO)[C@@H](O)[C@H](N)[C@H]3O)[C@H](N)C[C@@H]2N)[C@H](O)[C@@H](O)[C@@H]1O` [kanamycin]: the “number of colonies (average)” value in test [2] was in the range of 56 to 35.
